Literature values in patent US20040127402A1, “Injectible composition and method for treating degenerative animal joints” (priority 2002, published 2004).

Columns and labels:
[1] = animal studies

In the case of Hyaluronic acid, the “duration of superiority to oral medications” value (osteoarthritis; in vivo, po) is listed as “up to six”, the “duration of positive benefits” value (osteoarthritis; joint lavage prior to hyaluronic acid therapy) is listed as “up to one” and the chondroprotective effect [1] is listed as “mild chondroprotective effect”.
